Counter-ions that a name gives are not always drawn. Like-named read-outs stand apart in the source and are kept apart here.
Columns and labels:
[1] = system: P. falciparum asexual parasites; parameters: method as in earlier work; conditions: SI Table 3, previous screens, cited from earlier work; for IC50: read-out: Activity against asexual parasites IC50
[2] = system: P. falciparum 3D7 gametocytes; experiment: alamarBlue gametocyte viability assay, strain 3D7; format: cell-based, Plasmodium falciparum
Procedure: Asexual parasites of P. falciparum strain 3D7 were cultured as described previously[55]. Briefly, gametocyte cultures were set up at 0.1% parasitemia and on days 9–10 treated with 50 mM N-acetylglucosamine (NAG) to block further asexual growth. Stage III–V gametocytes were isolated by Percoll density gradient centrifugation on day 12 and returned to culture for 24 hrs before being used in the assay[9]. […] Growth medium was made with Dulbecco's Modified Eagle Medium with 10% fetal bovine serum (FBS).
Compound screening experiments were performed as previously described[11]. Briefly, 2.5 μl/well incomplete medium was dispensed into each well of 1,536-well plates using the Multidrop Combi followed by 23 nl compound transferring using the NX-TR Pintool (WAKO Scientific Solutions, San Diego, CA). Then, 2.5 μl/well of gametocytes was dispensed with a seeding density of 20,000 cells/well using the Multidrop Combi. The assay plates were incubated for 72 hrs at 37°C with 5% CO2.
The primary screen data was analyzed using customized software developed internally[58]. IC50 values were calculated using the Prism software (Graphpad Software, Inc. San Diego, CA). Data were presented as means ± SEM with n = 3 independent experiments.

[3] = system: P. falciparum Dd2 gametocytes; experiment: alamarBlue gametocyte viability assay, strain Dd2; format: cell-based, Plasmodium falciparum
Procedure: Briefly, gametocyte cultures were set up at 0.1% parasitemia and on days 9–10 treated with 50 mM N-acetylglucosamine (NAG) to block further asexual growth. Stage III–V gametocytes were isolated by Percoll density gradient centrifugation on day 12 and returned to culture for 24 hrs before being used in the assay[9].
Briefly, 2.5 μl/well incomplete medium was dispensed into each well of 1,536-well plates using the Multidrop Combi followed by 23 nl compound transferring using the NX-TR Pintool (WAKO Scientific Solutions, San Diego, CA). Then, 2.5 μl/well of gametocytes was dispensed with a seeding density of 20,000 cells/well using the Multidrop Combi. The assay plates were incubated for 72 hrs at 37°C with 5% CO2.

HepG2 cells [4] = conditions: for % Max response: HepG2 cells; for IC50: read-out: IC50 in HepG2 cells; for IC50 / IC50 in HepG2 cells: 11 concentrations, 1:3 dilution, Inactive = no significant activity at 46 µM
Source text: (§1) Growth medium was made with Dulbecco's Modified Eagle Medium with 10% fetal bovine serum (FBS).

[5] = system: P. falciparum HB3 gametocytes; experiment: alamarBlue gametocyte viability assay, strain HB3; format: cell-based, Plasmodium falciparum
HepG2 cells [6] = experiment: cells; conditions: Homo sapiens; for Emax: HepG2, read-out: % Max response; for IC50: HepG2, read-out: IC50 in HepG2 cells
Source text: as §1

[7] = P. falciparum 3D7 gametocytes, mean of at least 3 independent experiments, read-out: Gametocyte IC50
[8] = strain profiling, 11 concentrations, 1:3 dilution, three times, read-out: Dd2-gametocytes IC50
[9] = strain profiling, 11 concentrations, 1:3 dilution, three times, read-out: HB3-gametocytes IC50
[10] = Plasmodium falciparum, 3D7, SI Table 3, structure clusters, read-out: Activity against gametocytes Efficacy (% response)
[11] = Plasmodium falciparum, 3D7, SI Table 3, structure clusters, read-out: Activity against gametocytes IC50
[12] = SI Table 3, structure clusters, read-out: Activity against gametocytes IC50
[13] = Plasmodium falciparum, 3D7, strain profiling, 11 concentrations, 1:3 dilution, three times, read-out: 3D7-gametocytes IC50
[14] = Plasmodium falciparum, DD2, strain profiling, 11 concentrations, 1:3 dilution, three times, read-out: Dd2-gametocytes IC50
[15] = Plasmodium falciparum, HB3, strain profiling, 11 concentrations, 1:3 dilution, three times, read-out: HB3-gametocytes IC50
[16] = Plasmodium falciparum, 3D7, P. falciparum 3D7 gametocytes, mean of at least 3 independent experiments, read-out: Gametocyte IC50
[17] = read-out: Gametocyte IC50, P. falciparum 3D7 gametocytes, mean of at least 3 independent experiments
[18] = read-out: Dd2-gametocytes IC50, strain profiling, 11 concentrations, 1:3 dilution, three times
[19] = read-out: HB3-gametocytes IC50, strain profiling, 11 concentrations, 1:3 dilution, three times

CN(C)CCC=C1c2ccccc2CCc2ccccc21 [Amitriptyline hydrochloride]
Activity against asexual parasites Efficacy (% response) [1]: -82.37 % response
IC50 [1]: 11.2 µM

CC(=O)OC[C@H]1O[C@@H]([S-])[C@H](OC(C)=O)[C@@H](OC(C)=O)[C@@H]1OC(C)=O.CCP(CC)CC.[Au+] [Auranofin]
IC50 [2, 7]: 0.935 µM
IC50 [3, 8]: 1.18 µM
% Max response (HepG2 cells [4]): -98%
IC50 (HepG2 cells [4]): 9.35 µM
IC50 [5, 9]: 1.05 µM

CC1(C)OC2=C(C(=O)c3ccccc3C2=O)[C@H](NCc2ccccc2)[C@@H]1O [CAY10581]
IC50 [2, 7]: 0.743 µM
IC50 [3, 8]: 2.35 µM
% Max response (HepG2 cells [4]): -86%
IC50 (HepG2 cells [4]): 17.1 µM
IC50 [5, 9]: 0.662 µM

C=CCN1C[C@H](C(=O)N(CCCN(C)C)C(=O)NCC)C[C@@H]2c3cccc4[nH]cc(c34)C[C@H]21 [Cabergoline, reference compound]
Emax [2, 10]: 80.1%
IC50 [2, 11]: 17.8 µM
Activity against asexual parasites Efficacy (% response) [1]: -63.65 % response
IC50 [1]: 17.8 µM

CN(C)CCCN1c2ccccc2CCc2ccc(Cl)cc21 [Clomipramine hydrochloride]
Activity against asexual parasites Efficacy (% response) [1]: inactive
Activity against asexual parasites IC50 [1]: inactive

CN(C)CCCN1c2ccccc2CCc2ccc(Cl)cc21 [Clomipramine]
Activity against asexual parasites Efficacy (% response) [1]: inactive
Activity against asexual parasites IC50 [1]: inactive

CN(C)CCC=C1c2ccccc2C=Cc2ccccc21 [Cyclobenzaprine hydrochloride, reference compound]
Emax [2, 10]: 94.8%
IC50 [2, 11]: 5.62 µM
IC50 [2, 12]: 10 µM
Activity against asexual parasites Efficacy (% response) [1]: inactive
Activity against asexual parasites IC50 [1]: inactive

CN1CCC(=C2c3ccccc3C=Cc3ccccc32)CC1 [Cyproheptadine hydrochloride]
Activity against gametocytes Efficacy (% response) ([2]; SI Table 3, structure clusters): -80.99 % response
Activity against asexual parasites Efficacy (% response) [1]: inactive
Activity against asexual parasites IC50 [1]: inactive

CN1CCC(=C2c3ccccc3C=Cc3ccccc32)CC1 [Cyproheptadine]
Activity against gametocytes Efficacy (% response) ([2]; SI Table 3, structure clusters): -122.81 % response
Activity against asexual parasites Efficacy (% response) [1]: inactive
Activity against asexual parasites IC50 [1]: inactive

CNCCCN1c2ccccc2CCc2ccccc21 [Desipramine hydrochloride]
Emax [2, 10]: 101%
Activity against asexual parasites Efficacy (% response) [1]: inactive
Activity against asexual parasites IC50 [1]: inactive

CN(C)CCCN1c2ccccc2C(C)(C)c2ccccc21 [Dimetacrine, reference compound]
Emax ([2]; Plasmodium falciparum, 3D7, read-out: Activity against gametocytes Efficacy (% response), SI Table 3, structure clusters): 77%
IC50 ([2]; Plasmodium falciparum, 3D7, read-out: Activity against gametocytes IC50, SI Table 3, structure clusters): 22.4 µM
Activity against asexual parasites Efficacy (% response) [1]: inactive
Activity against asexual parasites IC50 [1]: inactive

COc1ncc(-c2ccc3nccc(-c4ccnnc4)c3c2)cc1NS(=O)(=O)c1ccc(F)cc1F [GSK-458]
IC50 [2, 7]: 0.935 µM
IC50 [3, 8]: 1.48 µM
IC50 in HepG2 cells (HepG2 cells [4]): Inactive
% Max response (HepG2 cells [4]): 33%
IC50 [5, 9]: 0.332 µM

CN(C)CCCN1c2ccccc2CCc2ccccc21 [Imipramine hydrochloride]
Activity against asexual parasites Efficacy (% response) [1]: inactive
Activity against asexual parasites IC50 [1]: inactive

CN(CCCN1c2ccccc2CCc2ccccc21)CC(=O)c1ccc(Cl)cc1 [Lofepramine hydrochloride, reference compound]
Emax [2, 10]: 103%
IC50 [2, 11]: 19.9 µM
Activity against asexual parasites Efficacy (% response) [1]: -103.99 % response
IC50 [1]: 10 µM

CCCCN(CCCC)CC(O)c1cc(Cl)cc2c1-c1ccc(Cl)cc1/C2=C/c1ccc(Cl)cc1 (stereo not drawn) [Lumefantrine]
Emax [2, 10]: 76.5%
IC50 [2, 13]: 0.059 µM
Activity against asexual parasites Efficacy (% response) [1]: -93.57 % response
IC50 [1]: 0.02 µM
IC50 [3, 14]: 0.013 µM
IC50 [5, 15]: 0.033 µM

CN(C)CCC=C1c2ccccc2C(C)(C)c2ccccc21.Cl [Melitracen hydrochloride, reference compound]
Activity against gametocytes Efficacy (% response) ([2]; SI Table 3, structure clusters): -103.56 % response
IC50 [2, 12]: 35.5 µM
Activity against asexual parasites Efficacy (% response) [1]: inactive
Activity against asexual parasites IC50 [1]: inactive

CN1C[C@@H](NS(=O)(=O)N(C)C)C[C@@H]2c3cccc4c3c(cn4C)C[C@H]21 [Mesulergine, reference compound]
Emax [2, 10]: 64%
IC50 [2, 11]: 35.5 µM
Activity against asexual parasites Efficacy (% response) [1]: inactive
Activity against asexual parasites IC50 [1]: inactive

CN1C[C@H](CNC(=O)OCc2ccccc2)C[C@@H]2c3cccc4c3c(cn4C)C[C@H]21 [Metergoline, reference compound]
IC50 [2, 11]: 12.6 µM
IC50 [2, 12]: 22.4 µM
Activity against asexual parasites Efficacy (% response) [1]: -71.24 % response
IC50 [1]: 12.6 µM

COc1ccc(C2NC(=S)N3C(c4ccc(OC)c(OC)c4)NC(=S)N23)cc1OC (stereo not drawn) [NSC174938]
IC50 in HepG2 cells (HepG2 cells [4]): Inactive

CO[C@]12C[C@@H](COC(=O)c3cncc(Br)c3)CN(C)[C@@H]1Cc1cn(C)c3cccc2c13 [Nicergoline, reference compound]
Emax [2, 10]: 39.4%
IC50 [2, 11]: 22.4 µM
Activity against asexual parasites Efficacy (% response) [1]: inactive
Activity against asexual parasites IC50 [1]: inactive

CNCCC=C1c2ccccc2CCc2ccccc21 [Nortriptyline hydrochloride, reference compound]
Emax [2, 10]: 111%
IC50 [2, 11]: 22.4 µM
IC50 [2, 12]: 35.5 µM
Activity against asexual parasites Efficacy (% response) [1]: inactive
Activity against asexual parasites IC50 [1]: inactive

COC(=O)C[C@](O)(CCCC(C)(C)O)C(=O)O[C@@H]1C(OC)=C[C@]23CCCN2CCc2cc4c(cc2[C@H]13)OCO4 [Omacetaxine]
IC50 [2, 7]: 0.083 µM
IC50 in HepG2 cells (HepG2 cells [4]): Curve not complete
% Max response (HepG2 cells [4]): -27%

NC(=O)N1c2ccccc2CC(=O)c2ccccc21 [Oxcarbazepine, reference compound]
Activity against gametocytes Efficacy (% response) ([2]; SI Table 3, structure clusters): inactive
Activity against gametocytes IC50 ([2]; SI Table 3, structure clusters): inactive
Activity against asexual parasites Efficacy (% response) [1]: inactive
Activity against asexual parasites IC50 [1]: inactive

CCCN1C[C@H](CSC)C[C@@H]2c3cccc4[nH]cc(c34)C[C@H]21 [Pergolide methanesulfonate, reference compound]
Emax [2, 10]: 83.5%
IC50 [2, 11]: 22.4 µM
Activity against gametocytes IC50 ([2]; SI Table 3, structure clusters): inactive
Activity against asexual parasites Efficacy (% response) [1]: inactive
Activity against asexual parasites IC50 [1]: inactive

CNCCCC1c2ccccc2C=Cc2ccccc21 [Protriptyline hydrochloride]
Emax [2, 10]: 81.7%
Activity against asexual parasites Efficacy (% response) [1]: inactive
Activity against asexual parasites IC50 [1]: inactive

C=CC1CN2CCC1CC2C(O)c1ccnc2ccc(OC)cc12.C=CC1CN2CCC1CC2C(O)c1ccnc2ccc(OC)cc12.O=S(=O)(O)O (stereo not drawn) [Quinine hemisulfate]
IC50 [2, 7]: 0.345 µM
IC50 [3, 8]: 0.083 µM
IC50 in HepG2 cells (HepG2 cells [4]): Inactive
% Max response (HepG2 cells [4]): 2%
IC50 [5, 9]: 0.235 µM

CC[C@@H](C(=O)[C@@H](C)[C@@H](O)[C@H](C)[C@@H]1O[C@@H]([C@@H](CC)C(=O)O)CC[C@@H]1C)[C@H]1O[C@]2(C=C[C@@H](O)[C@]3(CC[C@@](C)([C@H]4CC[C@](O)(CC)[C@H](C)O4)O3)O2)[C@H](C)C[C@@H]1C [Salinomycin sodium]
IC50 [2, 13]: 0.118 µM
IC50 ([2]; Plasmodium falciparum, P. falciparum 3D7 gametocytes, mean of at least 3 independent experiments, read-out: Gametocyte IC50): 0.194 µM
IC50 ([3]; Plasmodium falciparum, DD2, read-out: Dd2-gametocytes IC50): 0.296 µM
IC50 ([5]; Plasmodium falciparum, HB3, read-out: HB3-gametocytes IC50): 0.372 µM
Emax (HepG2 cells [6]): -69%
IC50 (HepG2 cells [6]): 29.6 µM

CCN(CC)C(=O)N[C@H]1C[C@@H]2c3cccc4[nH]cc(c34)C[C@H]2N(C)C1 [Terguride, reference compound]
Emax [2, 10]: 80.7%
IC50 [2, 11]: 28.2 µM
Activity against asexual parasites Efficacy (% response) [1]: inactive
Activity against asexual parasites IC50 [1]: inactive

CC(CN(C)C)CN1c2ccccc2CCc2ccccc21 (stereo not drawn) [Trimipramine maleate, reference compound]
Emax [2, 10]: 47%
IC50 [2, 11]: 22.4 µM
Activity against gametocytes IC50 ([2]; SI Table 3, structure clusters): inactive
Activity against asexual parasites IC50 [1]: inactive
IC50 [1]: 30.7 µM

CC1=C(CO)C(=O)O[C@@H]([C@@H](C)[C@H]2CC[C@H]3[C@@H]4C[C@H]5O[C@]56[C@@H](O)C=CC(=O)[C@]6(C)[C@H]4CC[C@]23C)C1 [Withaferin A]
IC50 [2, 16]: 0.372 µM
IC50 [3, 14]: 0.372 µM
IC50 [5, 15]: 1.33 µM
Emax (HepG2 cells [6]): -80%
IC50 (HepG2 cells [6]): 9.35 µM

COCCn1c2c([n+](Cc3cnccn3)c1C)C(=O)c1ccccc1C2=O [YM155]
IC50 [2, 16]: 0.372 µM
IC50 [3, 14]: 0.526 µM
IC50 [5, 15]: 0.304 µM
Emax (HepG2 cells [6]): -92%
IC50 (HepG2 cells [6]): 4.69 µM

Monensin sodium
IC50 [2, 17]: 0.254 µM
IC50 [3, 18]: 0.372 µM
IC50 in HepG2 cells (HepG2 cells [4]): Inactive
% Max response (HepG2 cells [4]): 40%
IC50 [5, 19]: 0.264 µM

Plicamycin
IC50 [2, 17]: 0.833 µM
IC50 [3, 18]: 2.35 µM
IC50 in HepG2 cells (HepG2 cells [4]): Inactive
% Max response (HepG2 cells [4]): 3%
IC50 [5, 19]: 2.96 µM

Source: PMC3894558, “Chemical signatures and new drug targets for gametocytocidal drug development” (Scientific Reports, 2014)
